Reference: PubChem BioAssay (NCI)
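1) Cells in 96-well plates. 2) Compound, 48 h, 5 concentrations. 3) Linear interpolation between surrounding doses. 4) Unreached endpoint = highest concentration. GI50: concentration for 50% inhibition of growth. TGI marks complete inhibition of growth.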

Experiments:
Test in all cases: NCI anticancer screen, dose series, 48 h
SNB-19 CNS = tested on: SNB-19 CNS
HCT-15 colon = tested on: HCT-15 colon
COLO 205 colon = tested on: COLO 205 colon
SNB-75 CNS = tested on: SNB-75 CNS
786-0 renal = tested on: 786-0 renal
SK-OV-3 ovarian = tested on: SK-OV-3 ovarian
PC-3 prostate = tested on: PC-3 prostate
EKVX NSCLC = tested on: EKVX NSCLC

SMILES | TGI (SNB-19 CNS) | TGI (HCT-15 colon) | TGI (COLO 205 colon) | TGI (SNB-75 CNS) | TGI (786-0 renal) | TGI (SK-OV-3 ovarian) | TGI (PC-3 prostate) | TGI (EKVX NSCLC) | GI50 (SNB-19 CNS) | GI50 (HCT-15 colon) | GI50 (COLO 205 colon) | GI50 (SNB-75 CNS) | GI50 (786-0 renal) | GI50 (SK-OV-3 ovarian) | GI50 (PC-3 prostate) | GI50 (EKVX NSCLC)
CCOC(=O)C1c2[nH]c3ccccc3c2CCN1C(=O)c1ccco1 (centres undefined) | > 10 µM | > 10 µM | > 10 µM | > 10 µM | > 10 µM | > 10 µM | > 10 µM | > 10 µM |  |  |  |  |  |  |  | 
O=C(/C=C/c1ccccn1)c1ccccc1O | 13.4 µM | 6.68 µM | 3.3 µM | 4.24 µM | 3.14 µM | 17.9 µM | 8.29 µM | 21.8 µM | 3.21 µM | 2.35 µM | 1.69 µM | 1.79 µM | 1.75 µM | 5.54 µM | 2.92 µM | 5.22 µM
CCc1ccc(CCC(=O)Nc2ncc(Cc3cc(Cl)ccc3Cl)s2)o1 | 12.4 µM | > 50 µM | 11 µM | 2.4 µM | > 50 µM | > 50 µM | > 50 µM | > 50 µM | 1.87 µM | 0.508 µM | 1.26 µM | 0.412 µM | 2.7 µM | 2.04 µM | 1.49 µM | 2.32 µM
O=C(CCCCCCC(=O)N/N=C/c1ccc(N(c2ccccc2)c2ccccc2)cc1)NO | 15.9 µM | 12 µM | 4.63 µM | 14.2 µM | 3.7 µM | 5.29 µM | 10.7 µM | 15.2 µM | 3.35 µM | 2.69 µM | 2.02 µM | 2.04 µM | 1.58 µM | 1.6 µM | 2.39 µM | 3.82 µM
CCOC(=O)c1ccc2c(c1)[n+](=O)c(C(=O)c1ccc3ccccc3c1)c(C(F)(F)F)n2[O-] | 3.07 µM | 3.3 µM | 2.87 µM | 2.34 µM | 2.99 µM | 2.99 µM | 2 µM | 3.14 µM | 1.7 µM | 1.49 µM | 1.52 µM | 1.13 µM | 1.61 µM | 1.64 µM | 0.729 µM | 1.56 µM
O=C(N/N=C/c1coc2ccc(Cl)cc2c1=O)c1ccncc1 | > 100 µM | > 100 µM | > 100 µM | > 100 µM | > 100 µM | > 100 µM | > 100 µM | > 100 µM | > 100 µM | 44.4 µM | > 100 µM | 49.4 µM | 55.3 µM | > 100 µM | 59.1 µM | 44.6 µM
O=C(CSc1nc2ccc([N+](=O)[O-])cc2[nH]1)Nc1cccc(Cl)c1 | 15.9 µM | 15 µM | 4.27 µM | 7.81 µM | 14.1 µM | 6.45 µM | 16.1 µM | 12.6 µM | 2.92 µM | 3.06 µM | 1.92 µM | 1.85 µM | 3.02 µM | 2.03 µM | 2.63 µM | 2.27 µM
COC1OCC(OS(=O)(=O)c2ccc(C)cc2)C(OC(=O)c2ccccc2)C1OC(=O)c1ccccc1 (centres undefined) | > 100 µM | > 100 µM | > 100 µM | 4.65 µM | > 100 µM | > 100 µM | > 100 µM | > 100 µM | 9.97 µM | 5.3 µM | 4.14 µM | 1.78 µM | 5.13 µM | 21.7 µM | 9.01 µM | 45.3 µM
C=CCCC(O)c1ccc(C(O)CCCCCCCCCCCC)o1 (centres undefined) | > 100 µM | 31.6 µM | > 100 µM | > 100 µM | 31.5 µM | > 100 µM | 47.8 µM | 50.4 µM | 51.6 µM | 16.2 µM | 40.5 µM | 33.3 µM | 17.6 µM | > 100 µM | 22.8 µM | 23.9 µM
O=C(CCc1nnc(-c2c(Cl)cccc2Cl)o1)c1nc2ccccc2[nH]1 | > 100 µM | 48.6 µM | 7.08 µM | > 100 µM | 45.5 µM | 30.5 µM | > 100 µM | > 100 µM | 17.4 µM | 5.13 µM | 2.66 µM | 18.7 µM | 10.7 µM | 4.6 µM | 3.71 µM | 5.48 µM
O=C(Nc1ncc(Cc2ccccc2)s1)c1ccc2c(c1)OCCO2 | > 38 µM | > 100 µM | 1.08 µM | 1.66 µM | > 100 µM | 26.9 µM | > 100 µM | > 100 µM | 0.0549 µM | 0.0385 µM | 0.0354 µM | 0.0277 µM | 0.0562 µM | 0.0681 µM | 0.0424 µM | 0.133 µM
CCCCCCCCCCCCOC1C(CNC(=O)C2OC3OC(C)(C)OC3C2NC(=O)CN2CCN(c3ccccn3)CC2)OC2OC(C)(C)OC21 (centres undefined) | 7.99 µM | 3.31 µM | 5.01 µM | 6.77 µM | 3.22 µM | 9.86 µM | 3.24 µM | 3.14 µM | 2.96 µM | 1.76 µM | 2.33 µM | 2.31 µM | 1.79 µM | 5.18 µM | 1.75 µM | 1.7 µM
O=C(O)CNC(=O)c1ccccc1O | > 100 µM | > 100 µM | > 100 µM | > 100 µM | > 100 µM | > 100 µM | > 100 µM | > 100 µM |  |  |  |  |  |  |  | 
CCOc1cc(C=O)c2c(ccc3ccc(OC)c(OC)c32)c1OC | > 100 µM | > 100 µM | > 100 µM | > 100 µM | > 100 µM | > 100 µM | > 100 µM | > 100 µM |  |  |  |  |  |  |  | 
O=C1CSC(=S)N1c1ccc(F)cc1F | > 100 µM | > 100 µM | > 100 µM | > 100 µM | > 100 µM | > 100 µM | > 100 µM | > 100 µM |  |  |  |  |  |  |  | 
Nc1ccccc1/C=N\Nc1ccccc1 | > 100 µM | > 100 µM | > 100 µM | > 100 µM | > 100 µM | > 100 µM | > 100 µM | > 100 µM | > 100 µM | 5.13 µM | 25.2 µM | > 100 µM | 2.69 µM | > 100 µM | 3.08 µM | 77.1 µM
